Structures are written as SMILES. Values joined by “and” are separate entries in the source; they are usually repeats but may differ in a detail not shown here. Equal values may be shown once. “Also recorded” adds a separate entry of the source. Read-outs that look alike come from different tables or passages of the source.

The values that follow come from patent EP3006939A1, “Histidine-rich Glycoprotein as a marker for hepatic Farnesoid X receptor activation” (Gilead Sciences, Inc., priority 2014, dated 2016).

The subject of data set [1] is HepaRG cells. The data set can be described thus: Microarray experiment, genome wide mRNA array analysis. Format: cell-based, human. To be noted: 1 µM, 24 hours, vs DMSO vehicle; for Fold changes to "DMSO", TBP mRNA: control gene. The procedure:
HepaRG cells were obtained plated from Biopredic International (# HPR203-MW96, Rennes, France) and cultivated in 6-well plates using the media and protocol supplied by the manufacturer. Cells were cultivated in induction medium (Biopredic International) with 1 µM of PX20350 (E. Hambruch et al., J. Pharmacol. Exp. Ther. 2012, 343, 556) diluted from a 20 mM stock solution in DMSO or DMSO as a vehicle control for 24 hours. Total RNA was isolated following the instructions of the RNeasy 96 RNA isolation kit (Qiagen, Hilde, Germany) and 200 ng total RNA used for a genome wide mRNA array analysis done as a fee for service at the Genomics & Pro-teomics Core Facility of the German Research Facility using the human Sentrix-6 V3 (4213572043) array from Illumina and standard experimental kits and protocols supplied by the manufacturer (Illumina Inc. San Diego U.S.A.).
This upregulation was similar to that (2.7 fold) of the known direct FXR target gene NR0B2 (SHP, Small heterodimer partner). In comparison, TBP mRNA (TATA box binding protein) was not changed in relative abundance (Table 1).

Data set [2] relates to Huh7 human hepatoma cells. The data set can be described thus: Induction of HRG and SHP mRNAs, RT-qPCR normalized to TBP. To be noted: Huh-7, 16 hours. It is filed as cell-based. The procedure:
(§1) Huh7 (# JCRB0403) cells were obtained from the Health Science Research Resources Bank, Osaka, Japan. Cells were cultivated in MEM containing 8.6% FCS supplemented with 2 mM L-Alanyl-L-Glutamine (all purchased via Sigma-Aldrich, Munich, Germany) in presence of 1 µM of PX20606 or DMSO as a vehicle for 16 hours. Total RNA from cells grown in 96 well tissue plates (Huh7, HepaRG and 3D human liver microtisues) were isolated following the instructions of the RNeasy 96 RNA isolation kit (Qiagen, Hilde, Germany) and cDNA's were synthesized from 1/25th of the isolated total RNA from one 96 well using Superscript II reverse Transcriptase (Life Technologies, Carlsbad, U.S.A.). Quantitative PCR was performed and analyzed using Absolute QPCR Rox Mix (Life Technologies, Carlsbad, U.S.A.) and a 384-format ABI 7900HT Sequence Detection System (Applied Biosystems, Darmstadt, Germany). Gene expression was expressed in arbitrary units and normalized relative to the housekeeping gene TATA box binding protein (TBP). The TBP normalized mRNA levels were plotted for HRG and SHP in Figure 1 (number of replicates n = 6). Table 2: Primer and probe sequences.

The target in data set [3] is T1, human FXR (Homo sapiens, UniProt Q96RI1).
T1 sequence (Q96RI1 1-486): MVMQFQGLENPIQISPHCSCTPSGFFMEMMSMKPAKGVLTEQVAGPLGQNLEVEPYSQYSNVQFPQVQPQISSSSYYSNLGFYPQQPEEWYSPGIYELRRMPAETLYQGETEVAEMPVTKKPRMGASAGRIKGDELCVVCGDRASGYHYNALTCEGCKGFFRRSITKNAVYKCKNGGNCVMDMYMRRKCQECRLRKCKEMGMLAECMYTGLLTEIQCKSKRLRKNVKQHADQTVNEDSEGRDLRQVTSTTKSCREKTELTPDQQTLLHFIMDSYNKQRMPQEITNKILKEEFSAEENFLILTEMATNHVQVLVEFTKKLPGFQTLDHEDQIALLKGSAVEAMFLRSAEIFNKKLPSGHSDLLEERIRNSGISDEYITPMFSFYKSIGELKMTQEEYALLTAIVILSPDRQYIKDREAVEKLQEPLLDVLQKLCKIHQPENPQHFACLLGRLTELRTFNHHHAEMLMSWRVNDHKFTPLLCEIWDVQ
The data set can be described thus: Luciferase reporter assay with human HRG promoter fragment in Huh7 cells co-transfected with an FXR expression plasmid. To be noted: FXR exogenously expressed, 1 µM, 16 h. It is filed as cell-based. The source says:
A human HRG promoter fragment was cloned as a Xhol-Hindlll fragment (from position -1,973 till +8 with respect to the mRNA starting nucleotide at +1) using the oligonucleotides […] (SEQ ID No. 10) and […] (SEQ ID No. 11) into the Xhol and Hindlll sites of pGL2basic (Promega, Madison, U.S.A.). The IR1 and ER2 sites were mutated using the primers of Table 3. Table 3: Primer sequences
The reporter plasmids pGL2-FXR-RE (FXR-RE), pGL2-PHRG (wt), pGL2-PHRG-IR1mut (IR1mut) and pGL2-PHRG-ER2mut (ER2mut) and pGL2-PHRG-IR1/ER2 (DM) (each 50 ng/well), were co-transfected with pTRex-Dest30-hFXR (20 ng/well) and pCMV-RL (5 ng/well, constitutively expressing the Renilla luciferase under control of a CMV promotor as an internal control) into Huh7 cells using lipofection with Polyethylenimine and cultivated in presence or absence of 1 µM of the FXR agonist PX20606 or DMSO as a vehicle control for 16 h followed by cell lysis and determination of luciferase activities as described in U. Deuschle et al., PLoS One 2012, 7, e43044.
In general terms: In a reporter assay the amount or activity of a reporter protein is the signal.

Data set [4] relates to human primary Upcyte® Hepatocytes. The data set can be described thus: Induction of HRG transcription, RT-qPCR normalized to TBP. Format: cell-based. To be noted: Hepatocyte, 24 hours. The procedure:
as §1, with “Table 2: Primer and probe sequences.” left out
Upcyte® hepatocytes (Cat# UH0-000-KA00 donor 10-03) derived from primary hepatocytes of a donor were cultivated in 96 well plates in high performance medium (Medicyte, Heidel-berg, Germany). Isolation of total RNA followed by quantitative qPCR was done as described in Example 2.
(In general: Real-time PCR tracks product formation cycle by cycle.)

The subject of data set [5] is HepG2-FXR5 cells. The data set is described as above. It is filed as cell-based. To be noted: Homo sapiens, 24 hours. The procedure: as §1, with “The TBP normalized mRNA levels were plotted for HRG and SHP in Figure 1 (number of replicates n = 6). Table 2: Primer and probe sequences.” left out
HepG2-FXR5 cells (described in U. Deuschle et al., PLoS One. 2012, 7, e43044) were cultivated in 96 well plates in RPMI medium supplemented with 8.6% FCS and supplemented with 2 mM L-Alanyl-L-Glutamine (all purchased via Sigma-Aldrich, Munich, Germany). Isolation of total RNA followed by quantitative qPCR was done as described in Example 2.

Data set [6] has as its system HepG2-FXR5 cells. The data set can be described thus: Detection of secreted HRG in cell supernatant by Ni-NTA agarose collection and Western blot. It is filed as cell-based, human. To be noted: 1 µM, 48 hours, vs DMSO, Western blot. The procedure: HepG2-FXR5 cells (described in U. Deuschle et al., PLoS One. 2012, 7, e43044) were cultivated in T75 flasks in RPMI medium supplemented with 0,2% BSA, 2 mM L-Alanyl-L-Glutamine (Sigma-Aldrich, Munich, Germany) and 1x Insulin-Transferrin-Selenium (#51500-056, Life Technolgies, Carlsbad, USA). Each 10 ml supernatant from cells grown in presence of 1 µM PX20606 or DMSO as vehicle for 48 hours were mixed with 100 µL Ni-NTA agarose slurry (#1018240, Qiagen, Hilden, Germany) for 1 h, the slurry was collected by centrifugation and after 3 washes with 10 mL 1xPBS resuspended in 100 µL SDS sample buffer. Western blot was performed (as described in U. Deuschle et al., PLoS One 2012, 7, e43044) and HRG detected using polyclonal mouse-anti human HRG antibodies (ab67807, Abcam, Cambridge, UK).
(In general: Immunoblotting shows a protein as a band on a membrane.)

Setting [7] is: read-out: HRG mRNA upregulated compared to DMSO.
Setting [8] is: read-out: known direct FXR target gene (SHP mRNA) upregulated compared to DMSO.

In the case of `CN(Cc1ccc(C(=O)O)cc1)c1ccc(OCc2c(-c3c(Cl)cccc3Cl)noc2C2CC2)nc1C(F)(F)F` [PX20350], in data set [1], the “Fold changes to "DMSO", NR0B2 (SHP) mRNA” value was 2.7 fold and the “Fold changes to "DMSO", TBP mRNA” value is “not changed”. Also, in data set [1] (1440 min), the “Fold changes to "DMSO", HRG mRNA” value was 2 fold and 2.0 fold; the “Fold changes to "DMSO", TBP mRNA” value was 1.0.

`O=C(O)c1ccc(C2CC2c2ccc(OCc3c(-c4c(Cl)cccc4Cl)noc3C3CC3)cc2Cl)cc1` (centres unmarked) [PX20606, 4-(2-(2-chloro-4-((5-cyclopropyl-3-(2,6-dichlorophenyl)isoxazol-4-yl)methoxy)phenyl)cyclopropyl)benzoic acid]: the fold induction at 1 µM in data set [2] (setting [7]) is about 3.5; in data set [2] (setting [8]), about 4; in data set [4] (setting [7]), about 11; in data set [4] (setting [8]) it was about 10; in data set [5] (setting [7]) it was about 20; in data set [5] (setting [8]), about 6. Also, in data set [3], the “activity of HRG promoter with mutated ER-2 site, luciferase reporter” value is “loss of FXR/FXR agonist responsitivity”. In addition, the “activity of HRG promoter with mutated IR-1 site, luciferase reporter” value in data set [3] is recorded as “reduce the activity”. Also, in data set [3] (vs DMSO), the “activity of HRG promoter (wt, -1973 to +8) luciferase reporter” value was “active”. The “amount of secreted HRG” value in data set [6] is reported as “increased; also recorded: up-regulated”.
